Laboratory results reported in paper PMC12127091, “Targeting Cancer With Bifunctional Peptides: Mechanism of Cell Entry and Inciting Cell Death” (Cancer Science, 2025).
Where a SMILES comes first, the peptide text is derived from it. [ ]: non-standard residue; d: D form.

Legend:
[1] = tested on: Caki‐2, SK‐BR‐3, A‐704 and CCD18‐Co; experiment: FITC‐peptide uptake by flow cytometry; assay type: cell-based; conditions: Caki‐2 and SK‐BR‐3, 5 μM FITC‐peptide, 1 h, Figure 2a
Protocol: 7 × 10^3–10^4 cells were seeded in a 96‐well plate. On the next day, the cells were incubated with 5 μM of FITC‐conjugated peptides. The cells were harvested at different time points and measured for their fluorescence intensity using BD FACSCanto II (Becton, Dickinson and Company, Franklin Lanes, NJ, USA). Dead cells were excluded by staining the cells with 7‐AAD dye (Biolegend, San Diego, CA, USA).

SK‐BR‐3 = experiment: Plasma membrane damage (LDH leakage, Annexin V binding); assay type: cell-based; conditions: SK‐BR‐3, 8 μM peptides, Figure 5a,b
Protocol: 7 × 10^3–10^4 cells were seeded in a 96‐well plate and left to recover overnight. The cells were treated with 8 μM of peptides and were harvested at two time points. The treated cells were harvested, and the supernatants were collected.
The cells were stained with FITC Annexin V and 7‐AAD (Biolegend) in Annexin V binding buffer (Becton, Dickinson and Company). The binding of Annexin V was checked using flow cytometry.
25 μL of the supernatant was used to check the presence of active lactate dehydrogenase using the CyQUANT LDH Cytotoxicity Assay Kit (Thermo Fisher Scientific) according to the manufacturer's instructions. The absorbance was measured at 490 and 680 nm.

[2] = attributed to high polarity; cited from earlier work
Source text: (§1) Nonetheless, introducing this peptide to human sarcoma and melanoma cell lines at 1% of their inhibitory concentrations (IC50) was described to induce mitochondrial swelling p ...

human erythrocytes = conditions: cited from earlier work
Source text: as §1

Compound	internalization (fluorescence intensity) of FITC‐peptides [1]	time after peptide addition at which major plasma membrane damage was detected (SK‐BR‐3)	ability to cross the plasma membrane [2]	cytotoxicity towards human erythrocytes (human erythrocytes)
CC(C)C[C@H](NC(=O)[C@H](Cc1c[nH]c2ccccc12)NC(=O)[C@@H]1CCCN1C(=O)[C@H](CO)NC(=O)[C@H](Cc1ccc(O)cc1)NC(=O)[C@@H](N)C(C)C)C(=O)N[C@H](C(=O)NCC(=O)NCC(=O)N[C@H](CCCCN)C(=O)N[C@H](CC(C)C)C(=O)N[C@H](C)C(=O)N[C@H](CCCCN)C(=O)N[C@H](CC(C)C)C(=O)N[C@H](C)C(=O)N[C@H](CCCCN)C(=O)N[C@H](CCCCN)C(=O)N[C@H](CC(C)C)C(=O)N[C@H](C)C(=O)N[C@H](CCCCN)C(=O)N[C@H](CC(C)C)C(=O)N[C@H](C)C(=O)N[C@H](CCCCN)C(=O)O)[C@@H](C)O [TP2‐D‐Tox] (H-VYSPWLTGG[dK][dL][dA][dK][dL][dA][dK][dK][dL][dA][dK][dL][dA][dK]-OH)	higher cell penetration	≤ 3 h		
CC(C)C[C@H](N)C(=O)N[C@H](C(=O)N[C@H](C(=O)N[C@@H](CO)C(=O)N1CCC[C@H]1C(=O)N[C@@H](Cc1c[nH]c2ccccc12)C(=O)N[C@@H](Cc1ccc(O)cc1)C(=O)NCC(=O)NCC(=O)N[C@H](CCCCN)C(=O)N[C@H](CC(C)C)C(=O)N[C@H](C)C(=O)N[C@H](CCCCN)C(=O)N[C@H](CC(C)C)C(=O)N[C@H](C)C(=O)N[C@H](CCCCN)C(=O)N[C@H](CCCCN)C(=O)N[C@H](CC(C)C)C(=O)N[C@H](C)C(=O)N[C@H](CCCCN)C(=O)N[C@H](CC(C)C)C(=O)N[C@H](C)C(=O)N[C@H](CCCCN)C(=O)O)C(C)C)[C@@H](C)O [TP‐D‐Tox] (H-LTVSPWYGG[dK][dL][dA][dK][dL][dA][dK][dK][dL][dA][dK][dL][dA][dK]-OH)		≤ 3 h		
CC(C)C[C@H](NC(=O)[C@H](CCCCN)NC(=O)[C@H](C)NC(=O)[C@H](CC(C)C)NC(=O)[C@H](CCCCN)NC(=O)[C@H](CCCCN)NC(=O)[C@H](C)NC(=O)[C@H](CC(C)C)NC(=O)[C@H](CCCCN)NC(=O)[C@H](C)NC(=O)[C@H](CC(C)C)NC(=O)[C@@H](N)CCCCN)C(=O)N[C@@H](C)C(=O)N[C@@H](CCCCN)C(=O)O [Tox]			hardly able to cross the plasma membrane	considerably lower cytotoxicity
